Measurements as given in patent US20030105300A1, “Tumor targeted photodiagnostic-phototherapeutic agents” (MALLINCKRODT INC., priority 2001, published 2003).

Columns and labels:
Design in all cases: species or system male Lewis rats
[1] = system: CA20948 (pancreatic) tumor; assay: In vivo fluorescence imaging of tumor-bearing rats with indocyanine green (CA20948)
Text: (§1) A non-invasive in vivo fluorescence imaging apparatus was employed to assess the efficacy of indocyanine green (ICG) in three different rat tumor cell lines of the inventive contrast agents developed for tumor detection in animal models. A LaserMax Inc. laser diode of nominal wavelength 780 nm and nominal power of 40 mW was used. The detector was a Princeton Instruments model RTE/CCD-1317-K/2 CCD camera with a Rodenstock 10 mm F2 lens (stock #542.032.002.20) attached. An 830 nm […] (CVI Laser Corp., part #F10-830-4-2) was mounted in front of the CCD input lens, such that only emitted fluorescent light from the contrast agent was imaged.
(§2) Three tumor cell lines, DSL 6/A (pancreatic), Dunning R3327-H (prostate), and CA20948 (pancreatic), which are rich in somatostatin (SST-2) receptors were induced into male Lewis rats by solid implant technique in the left flank area (Achilefu et al., Invest. Radiology, 2000, pp. 479-485). Palpable masses were detected nine days post implant.

[2] = system: Dunning R3327-H (prostate) tumor; assay: In vivo fluorescence imaging of tumor-bearing rats with indocyanine green (Dunning R3327-H); conditions: left flank, 0.5 ml of 0.42 mg/ml ICG in saline, tail vein, images at 2 and 30 minutes
Text: as §1, §2

[3] = system: DSL 6/A (pancreatic) tumor; assay: In vivo fluorescence imaging of tumor-bearing rats with indocyanine green (DSL 6/A); conditions: DSL 6/A tumor, left flank; 0.5 ml of 0.42 mg/ml ICG in saline, tail vein; images at 2 and 30 minutes
Text: as §1, §2

## CC1(C)C(/C=C/C=C/C=C/C=C2\N(CCCCS(=O)(=O)O)c3ccc4ccccc4c3C2(C)C)=[N+](CCCCS(=O)(=O)[O-])c2ccc3ccccc3c21 [ICG, indocyanine green]
[1]; compared to the other two lines
  non-specific localization into the tumor line: no non-specific localization
[1]; left flank, 0.5 ml of 0.42 mg/ml ICG in saline, tail vein, images at 2 and 30 minutes
  perfusion of the agent into the tumor (fluorescence images): only a slight and transient perfusion that was cleared after only 30 minutes post injection
[2]
  perfusion of the agent into the tumor (fluorescence images): slow perfusion of the agent into the tumor over time
[3]
  perfusion of the agent into the tumor (fluorescence images): slow perfusion of the agent into the tumor over time
